The supplement of paper PMC10331698
± gives the standard deviation of the averaged measurements.

Legend:
Test in all cases: level (log10 ratio to DMSO vehicle control); higher = higher biomarker level / cell amount than vehicle control
[1] = compound: OCCC(F)(F)C(F)(F)C(F)(F)C(F)(F)F [4:2 Fluorotelomer alcohol] (in DMSO)
Description: (§1)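 BioMAP Diversity Plus panel of 12 human primary cell co-culture systems (3C, 4H, LPS, SAg, BT, BF4T, BE3C, CASM3C, HDF3CGF, KF3CT, MyoF, Mphg). Compounds were added 1 h before stimulation and left for 24 h (MyoF 48 h; BT 72 h for soluble read-outs or 6 d for IgG). Biomarkers were read by ELISA, cytotoxicity by SRB, PBMC viability and proliferation by Alamar Blue. Each well value was divided by the mean of 8 DMSO control wells on the same plate and log10 transformed; duplicate blinded samples were tested at 4 concentrations.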

[2] = compound: O=C(O)C(F)(OC(F)(F)C(F)(F)C(F)(F)F)C(F)(F)F [Ammonium perfluoro-2-methyl-3-oxahexanoate] (in Water)
Description: as §1

[3] = compound: OCC(F)(F)C(F)(F)C(F)(F)C(F)(F)C(F)(F)C(F)(F)CO [1H,1H,8H,8H-Perfluorooctane-1,8-diol] (in DMSO)
Description: as §1

[4] = compound: O=C(O)C(F)(F)OC(F)(F)C(F)(F)OC(F)(F)C(F)(F)OC(F)(F)C(F)(F)C(F)(F)C(F)(F)F [Perfluoro-3,6,9-trioxatridecanoic acid] (in DMSO); conditions: 6700 nM
Description: as §1

[5] = compound: O=C(O)C(F)(OC(F)(F)C(F)(OC(F)(F)C(F)(OC(F)(F)C(F)(F)C(F)(F)F)C(F)(F)F)C(F)(F)F)C(F)(F)F [Perfluoro-(2,5,8-trimethyl-3,6,9-trioxadodecanoic)acid] (in DMSO)
Description: as §1

[6] = compound: O=C(O)C(F)(F)C(F)(F)C(F)(F)C(F)(F)C(F)(F)C(F)(F)C(F)(F)C(F)(F)C(F)(F)C(F)(F)F [Perfluoroundecanoic acid] (in DMSO); conditions: 6700 nM
Description: as §1

[7] = compound: O=C(O)C(F)(F)C(F)(F)C(F)(F)C(F)(F)C(F)(F)C(F)(F)C(F)(F)C(F)(F)F [Perfluorononanoic acid] (in DMSO)
Description: as §1

[8] = compound: C[C@@H]1C[C@H]2[C@@H]3CCC4=CC(=O)C=C[C@]4(C)[C@@]3(F)[C@@H](O)C[C@]2(C)[C@@]1(O)C(=O)COP(=O)(O)O [Dexamethasone sodium phosphate] (in DMSO)
Description: as §1

Test System	level (log10) ([1]; 6700 nM)	level (log10) ([1]; 20000 nM)	level (log10) ([1]; 60000 nM)	level (log10) ([2]; 6700 nM)	level (log10) ([2]; 20000 nM)	level (log10) ([2]; 60000 nM)	level (log10) ([3]; 6700 nM)	level (log10) ([3]; 20000 nM)	level (log10) ([3]; 60000 nM)	level (log10) [4]	level (log10) ([5]; 1100 nM)	level (log10) ([5]; 3300 nM)	level (log10) ([5]; 10000 nM)	level (log10) [6]	level (log10) ([7]; 6700 nM)	level (log10) ([7]; 20000 nM)	level (log10) ([8]; 1500 nM)	level (log10) ([8]; 4400 nM)	level (log10) ([8]; 13000 nM)	level (log10) ([8]; 40000 nM)
BE3C:EGFR	-0.0165 ± 0.022	-0.002 ± 0.018	0.0315 ± 0.011	-0.016 ± 0.023	-0.009 ± 0.0085	0.005 ± 0.0057	-0.019 ± 0.024	-0.01 ± 0.017	-0.0315 ± 0.005	-0.212 ± 0.022	0.0085 ± 0.0021	0.0035 ± 0.0035	0.0185 ± 0.0078	-0.064 ± 0.0014	-0.023 ± 0.028	-0.0285 ± 0.03	0.008 ± 0.042	-0.0035 ± 0.013	-0.011 ± 0.0071	-0.0145 ± 0.005
BE3C:HLA-DR	-0.0265 ± 0.052	-0.0075 ± 0.03	0.002 ± 0.0099	-0.022 ± 0.013	-0.0015 ± 0.018	-0.0265 ± 0.0021	0.009	-0.0245 ± 0.0064	-0.039 ± 0.014	-0.8695 ± 0.0078	-0.0055 ± 0.005	-0.0095 ± 0.0021	0.0085 ± 0.0078	-0.0815 ± 0.022	-0.039 ± 0.064	-0.066 ± 0.02	0.0175 ± 0.026	-0.0205 ± 0.033	0.0195 ± 0.011	0.035 ± 0.017
BE3C:IL-1alpha	-0.0425 ± 0.026	-0.0345 ± 0.016	-0.017 ± 0.0085	-0.0215 ± 0.013	-0.001 ± 0.0028	-0.0085 ± 0.005	0.002 ± 0.0042	0.0015 ± 0.0064	0.0055 ± 0.029	-0.469 ± 0.052	-0.019 ± 0.0028	-0.0175 ± 0.035	0.004 ± 0.018	-0.069 ± 0.0042	-0.032 ± 0.024	-0.0625 ± 0.023	-0.025 ± 0.0028	-0.054 ± 0.0028	-0.0395 ± 0.0092	-0.0225 ± 0.036
BF4T:CCL2/MCP-1	0.0035 ± 0.073	-0.0015 ± 0.021	0.0275 ± 0.005	0.007 ± 0.031	0.005 ± 0.048	0.0285 ± 0.021	-0.0075 ± 0.0064	-0.017 ± 0.0014	-0.009 ± 0.024	-0.155 ± 0.11	0.007 ± 0.028	0.0015 ± 0.00071	-0.004 ± 0.017	-0.009 ± 0.023	-0.0115 ± 0.029	-0.154 ± 0.026	-0.0085 ± 0.019	-0.0165 ± 0.0035	-0.017 ± 0.0014	-0.0135 ± 0.018
BF4T:CCL26/Eotaxin-3	-0.037 ± 0.068	0.016 ± 0.073	0.001 ± 0.082	-0.128 ± 0.03	-0.0995 ± 0.06	-0.137 ± 0.03	0.004 ± 0.0057	-0.009 ± 0.033	-0.019 ± 0.018	-0.395 ± 0.018	-0.026 ± 0.018	0.009 ± 0.025	0.034 ± 0.021	-0.212 ± 0.014	-0.0345 ± 0.037	-0.288 ± 0.0085	-0.0755 ± 0.043	-0.134 ± 0.086	-0.115 ± 0.012	-0.122 ± 0.03
BF4T:CD54/ICAM-1	-0.0055 ± 0.025	0.0135 ± 0.03	-0.003 ± 0.034	-0.0155 ± 0.012	-0.0265 ± 0.016	-0.0075 ± 0.0021	-0.0275 ± 0.0092	-0.015 ± 0.013	-0.029 ± 0.017	-0.0705 ± 0.019	0.0025 ± 0.018	0.004 ± 0.0042	0.004 ± 0.0085	-0.0175 ± 0.026	-0.0035 ± 0.021	-0.05 ± 0.014	-0.003 ± 0.021	-0.0105 ± 0.011	-0.0205 ± 0.0021	-0.0005 ± 0.015
BF4T:CD90	-0.0285 ± 0.0078	-0.0085 ± 0.03	-0.0125 ± 0.0064	-0.0065 ± 0.011	-0.015 ± 0.011	-0.007 ± 0.024	-0.011 ± 0.023	-0.005 ± 0.028	-0.014 ± 0.018	0.0045 ± 0.0021	0.001 ± 0.0042	0 ± 0.0028	0.0085 ± 0.0035	-0.016 ± 0.0028	-0.0095 ± 0.0035	-0.045 ± 0.0028	0.009 ± 0.018	-0.002 ± 0.023	-0.005 ± 0.018	0.0025 ± 0.015
